Test system: Botrytis cinerea
Assay: Hyphal growth of Botrytis cinerea in agricultural-chemical three-concentration-level layers-stacked culture media
Format: cell-based
Conditions: 25 degrees Celsius, seven days; for hyphae of Botrytis cinerea in the culture medium layer (microscope observation from side surface): potato dextrose agar
Text: Botrytis cinerea that is one type of phytopathogenic fungus and a pathogenic fungus of tomato gray mold disease was inoculated into a potato dextrose agar culture medium (Difco (registered trademark) Potato Dextrose Agar). Next, the culture medium was left to stand still at a temperature of 25 degrees Celsius for one week. […] Next, the Botrytis cinerea-cultured potato dextrose agar culture medium in which hyphae sufficiently grew was left under irradiation with black light for not less than four days and left in a room-temperature environment for not less than two weeks to promote spore formation. […] Hereinafter, this aqueous solution is referred to as an “aqueous phytopathogenic fungus solution”.
Agricultural-chemical main-ingredient reagent Captan (manufactured by Tokyo Chemical Industry Co., Ltd. (TCI)) was added to potato dextrose agar culture media, with a charging amount (concentration) changed, to produce three layers of original culture media. Captan was prepared into a dimethyl sulfoxide (DMSO) (manufactured by SIGMA-ALDRICH) solution of Captan at a concentration 100 times a standard use concentration. The solution was charged into and mixed with the potato dextrose agar culture media respectively in amounts of 0 ml, 2 ml, and 10 ml per 1 L of the potato dextrose agar culture media to make three-concentration-level culture media respectively at a Captan concentration of 0 (no blending) and in an amount ⅕ a standard use amount of Captan and the standard use amount. In the present example, the potato dextrose agar culture media containing Captan at three concentration levels were stacked from bottom in an order of the Captan standard amount culture medium, the culture medium in an amount ⅕ the Captan standard amount, and the medium with no Captan blended, and the stacked body was cut out with a glass cylindrical, square, or rectangular shape forming member into a device of the example. […]

In the case of `O=C1C2CC=CCC2C(=O)N1SC(Cl)(Cl)Cl` (stereo not drawn) [Captan], the “amount at which an effect against Botrytis cinerea was exerted (effective concentration)” value (layer where hyphal growth stopped) is reported as “⅕”, the “hyphae of Botrytis cinerea in the culture medium layer (microscope observation from side surface)” value (lower layer 64, Captan blended in the standard amount) is reported as “No hypha was confirmed” and the “hyphae of Botrytis cinerea in the culture medium layer (microscope observation from side surface)” value (second layer 63, Captan blended in the amount ⅕ the standard use amount) is reported as “no hypha of Botrytis cinerea was confirmed”.

— patent US12054765B2, “Phytopathogenic fungus detecting apparatus, and detecting method and method for selecting concentration of agricultural chemical using same” (Panasonic Intellectual Property Management Co., Ltd., priority 2018, dated 2024)
